Measured values taken from patent US20050112198A1, “Bupropion formulation for sustained delivery” (priority 2003, published 2005).

Experiments:
[1] = In-house drug-excipient compatibility / storage stability of bupropion hydrochloride; format: physicochemical; conditions: for degradation of active drug in drug-excipient mixtures: 50° C./75% RH and 40° C./75% RH
Description: In order to study the compatibility of various excipients used in the proposed invention with bupropion hydrochloride, various drug-excipient mixtures were prepared. The each excipient amount relative to drug varied from 1:1 to 1:10. […] As predicted with the active drug, it has been observed during their analysis at various time intervals by liquid chromatography that most of the excipients studied are causing degradation of the active drug with a result of two distinct degradation peaks, in which all cellulose based excipients considered to be interacting uniquely with the pure drug compared to non-cellulose based excipients. […] The above changes were more pronounced in samples studied under open conditions compared to closed condition samples. […] Such degradation could be due to impurities like peroxide, heavy metals and bleaching agents present in such materials. Even though such impurities are present within acceptable limits, the moisture content carried in them should have acted as solvent to aggravate such reactions. […] The package component seems to play a vital role for stabilizing the dosage form: high-density polyethylene (HDPE) containers with additional thickness/weight are preferred apart from maintaining sufficient quantity of adsorbent added to the packaging system to minimize moisture and oxygen/odor levels.

[2] = crystalline solid; cited from earlier work

**Q.** With CC(NC(C)(C)C)C(=O)c1cccc(Cl)c1.Cl (racemic) [Bupropion hydrochloride, (±)-1-(3-chlorophenyl)-2-[(1,1-dimethylethyl)amino]-1-propanone hydrochloride] as the molecule, how does the “stability of the salt form alone” value ([1]; in-house studies, normal storage conditions, without excipients) read?
**A.** The value was “stable in normal storage conditions”.

**Q.** What about the “degradation of active drug in drug-excipient mixtures” value ([1]; mixtures with Kollidon VA64, Kollidon SR, methylcellulose, colloidal silicon dioxide, magnesium stearate, enteric coating materials) of the same molecule?
**A.** The value was “minimum amount or no change”.

**Q.** What about the “degradation of active drug in drug-excipient mixtures” value ([1]; mixtures with hydroxypropyl cellulose, polyethylene oxide and sodium carboxymethyl cellulose, 1:1 to 1:10, liquid chromatography) of the same molecule?
**A.** The value was “rapid degradation”.

**Q.** And the water solubility [2]?
**A.** Its water solubility is “water soluble”.
